# Measurements reported in the OligoGym collection.
# HELM strings list units from the 5' end as sugar, base in round brackets, then linkage (d deoxyribose, r ribose, m 2'-O-methyl, p phosphodiester). Strings are as the collection lists them; they lack the last nucleoside at the 3' end of the tested compound. [moe] = 2'-O-(2-methoxyethyl) (MOE); [sp] = phosphorothioate linkage; [m5C] = 5-methylcytosine
# Molecular target: UBE3A-ATS
# Experiment: mouse, dose not given
# Conditions: ASO
row,Substance,3 h FOB score [score 0-7]
1,RNA1{[moe](G)[sp].[moe](A)p.[moe](A)p.[moe](A)p.[moe]([m5C])p.d([m5C])[sp].d(A)[sp].d(G)[sp].d([m5C])[sp].d([m5C])[sp].d(A)[sp].d(G)[sp].d(G)[sp].d(T)[sp].d(G)[sp].[moe](T)p.[moe]([m5C])p.[moe](T)[sp].[moe](T)}$$$$ (last 3' nucleoside missing),3
2,RNA1{[moe](G)[sp].[moe](A)p.[moe](A)p.[moe]([m5C])p.[moe](T)p.d(A)[sp].d(T)[sp].d([m5C])[sp].d([m5C])[sp].d(T)[sp].d(G)[sp].d([m5C])[sp].d(A)[sp].d(T)[sp].d([m5C])[sp].[moe]([m5C])p.[moe](G)p.[moe](A)[sp].[moe](G)}$$$$ (last 3' nucleoside missing),4.2
3,RNA1{[moe](G)[sp].[moe](A)p.[moe](G)p.[moe](A)p.[moe](A)p.d([m5C])[sp].d([m5C])[sp].d([m5C])[sp].d(A)[sp].d([m5C])[sp].d(T)[sp].d(T)[sp].d(G)[sp].d(A)[sp].d(T)[sp].[moe]([m5C])p.[moe](T)p.[moe](A)[sp].[moe](T)}$$$$ (last 3' nucleoside missing),3
4,RNA1{[moe](G)[sp].[moe](A)p.[moe](G)p.[moe](A)p.[moe](T)p.d(A)[sp].d(G)[sp].d(A)[sp].d(A)[sp].d([m5C])[sp].d(A)[sp].d([m5C])[sp].d(T)[sp].d(T)[sp].d([m5C])[sp].[moe](G)p.[moe]([m5C])p.[moe]([m5C])[sp].[moe](G)}$$$$ (last 3' nucleoside missing),5
5,RNA1{[moe](G)[sp].[moe](A)p.[moe](G)p.[moe](A)p.[moe]([m5C])p.d(A)[sp].d(T)[sp].d(G)[sp].d(T)[sp].d(G)[sp].d([m5C])[sp].d([m5C])[sp].d(A)[sp].d(G)[sp].d(T)[sp].[moe](T)p.[moe]([m5C])p.[moe](A)[sp].[moe](A)}$$$$ (last 3' nucleoside missing),6
6,RNA1{[moe](G)[sp].[moe](A)p.[moe](G)p.[moe](T)p.[moe](A)p.d(G)[sp].d(T)[sp].d([m5C])[sp].d(T)[sp].d(A)[sp].d(T)[sp].d(T)[sp].d(G)[sp].d(G)[sp].d(T)[sp].[moe](G)p.[moe](T)p.[moe](T)[sp].[moe]([m5C])}$$$$ (last 3' nucleoside missing),5.5
7,RNA1{[moe](G)[sp].[moe](A)p.[moe](G)p.[moe](T)p.[moe](A)p.d(T)[sp].d(A)[sp].d(T)[sp].d(T)[sp].d(A)[sp].d([m5C])[sp].d([m5C])[sp].d(T)[sp].d([m5C])[sp].d([m5C])[sp].[moe](A)p.[moe](G)p.[moe](G)[sp].[moe](T)}$$$$ (last 3' nucleoside missing),1
8,RNA1{[moe](G)[sp].[moe](A)p.[moe](G)p.[moe]([m5C])[sp].d(T)[sp].d(A)[sp].d(T)[sp].d([m5C])[sp].d(T)[sp].d(G)[sp].d(T)[sp].d(A)[sp].[moe]([m5C])p.[moe](A)p.[moe](A)p.[moe](A)[sp].[moe](A)}$$$$ (last 3' nucleoside missing),3.3
9,RNA1{[moe](G)[sp].[moe](A)p.[moe](G)p.[moe]([m5C])p.[moe](A)p.d(T)[sp].d(T)[sp].d(G)[sp].d(G)[sp].d([m5C])[sp].d(T)[sp].d(T)[sp].d([m5C])[sp].d(A)[sp].d(T)[sp].[moe](A)p.[moe](T)p.[moe](T)[sp].[moe](T)}$$$$ (last 3' nucleoside missing),1
10,RNA1{[moe](G)[sp].[moe](A)p.[moe](G)p.[moe]([m5C])p.[moe](T)[sp].d(A)[sp].d(T)[sp].d([m5C])[sp].d(T)[sp].d(G)[sp].d(T)[sp].d(A)[sp].d([m5C])[sp].[moe](A)p.[moe](A)p.[moe](A)[sp].[moe](A)}$$$$ (last 3' nucleoside missing),6
